In patent US10351525B2, “Beta lactamase inhibitors” (Oxford University Innovation Limited, priority 2014, dated 2019):
pIC50: −log10 of the molar value.

Tests used:
VIM-2 = target: T1, VIM-2 (Escherichia coli, UniProt Q5U7L7); settings: Spicer et al, NIH Probe Reports 2010, read-out: IC50 against VIM-2, reported value; cited from earlier work
T1 construct: made in house; host or cells: Escherichia coli

[1] = system: Galleria mellonella wax moth larvae; assay: In vivo toxicity in wax moth larvae model; settings: doses up to 80 mg/kg
K. oxytoca 95 = assay: MIC of MEM with and without ML302F (1:8), VIM-4 producer; assay type: cell-based; settings: Klebsiella oxytoca; K. oxytoca 95 (VIM-4); MEM alone or with ML302F (1:8)
Method: (§1) In a further study, antimicrobial activities of MEM and ML302F alone and in combination were assessed in-vitro against 31 VIM-producing clinical isolates.

K. oxytoca 126 = assay: as above; assay type: cell-based; settings: Klebsiella oxytoca; K. oxytoca 126 (VIM-4); MEM alone or with ML302F (1:8)
Method: as §1

K. pneumoniae 128 = assay: as above; assay type: cell-based; settings: Klebsiella pneumoniae; K. pneumoniae 128 (VIM-4); MEM alone or with ML302F (1:8)
Method: as §1

E. coli 98 = assay: as above; assay type: cell-based; settings: Escherichia coli; E. coli 98 (VIM-4); MEM alone or with ML302F (1:8)
Method: as §1

E. cloacae 102 = assay: as above; assay type: cell-based; settings: Enterobacter cloacae; E. cloacae 102 (VIM-4); MEM alone or with ML302F (1:8)
Method: as §1

K. pneumoniae 196 = assay: as above; assay type: cell-based; settings: Klebsiella pneumoniae; K. pneumoniae 196 (VIM-4); MEM alone or with ML302F (1:8)
Method: as §1

K. pneumoniae 101 = assay: as above; assay type: cell-based; settings: Klebsiella pneumoniae; K. pneumoniae 101 (VIM-4); MEM alone or with ML302F (1:8)
Method: as §1

K. pneumoniae 120 = assay: as above; assay type: cell-based; settings: Klebsiella pneumoniae; K. pneumoniae 120 (VIM-4); MEM alone or with ML302F (1:8)
Method: as §1

E. coli EC98 = assay: MEM/ML302F treatment assay in infected G. mellonella larvae; assay type: in vivo; settings: EC 98 infection; 96 hrs; MEM 0.6 mg/kg, ML302F 4.8 mg/kg, alone or combined (1:8)
Method: (§2) The activity of MEM and ML302F alone and in combination were assessed using 16 G. mellonella larva as described by M. Hornsey and D. W. Wareham (Antimicrob. Agents Chemother., 2011, 55(7), 3534-3537). Larvae were inoculated with P. aeruginosa GR57, E. coli EC98 and K. pneumoniae KP120. In combination therapies, a fixed ratio (1:8) of MEM:ML302F containing 0.6 mg/Kg of MEM8 and 4.8 mg/Kg of ML302F was administered in 10 μL injections to infected larvae. PBS injections (10 μL) were used as both controls for no antimicrobial therapy and inoculation injury. Larvae were scored for survival over 96 hrs and kill curves analysed by the log-rank test for trend. Relative risk (RR) of survival between the different treatment arms was calculated using Fisher's exact test with, two-tailed P-values of <0.05 considered statistically significant.

K. pneumoniae KP120 = assay: as above; assay type: in vivo; settings: KP 120 infection; 96 hrs; MEM 0.6 mg/kg, ML302F 4.8 mg/kg, alone or combined (1:8)
Method: as §2

P. aeruginosa GR57 = assay: as above; assay type: in vivo; settings: PA GR57 infection; 96 hrs; MEM 0.6 mg/kg, ML302F 4.8 mg/kg, alone or combined (1:8)
Method: as §2

[2] = system: K. pneumoniae NCTC 5055 (wt); assay: Meropenem MIC with and without inhibitor; assay type: cell-based; settings: Klebsiella pneumoniae, NCTC5055, read-out: Meropenem MIC in the absence of inhibitor
Method: (§3) Further studies were carried out to determine if ML302F/ML302 potentiates β-lactam antibiotic activity in clinically derived strains containing IMP-1, IMP-4, VIM-4 or NDM-1, which are the most commonly observed MBLs in clinical isolates. All strains producing MBLs were confirmed as resistant to meropenem at the Clinical and Laboratory Standards Institute (U.S.A.) defined breakpoint of 8 μg/mL for Enterobacteriace (see Table 2 below). The minimum inhibitory concentration (MIC) of meropenem against wildtype and MBL producing Escherichia coli and Klebsiella pneumoniae strains was determined with and without increasing concentrations of ML302 or ML302F. Clinical and Laboratory Standards Institute. 2012. Methods for dilution antimicrobial susceptibility tests for bacteria that grow aerobically; 9th ed. Approved standard M07-A9. CLSI, Wayne, Pa.; and Clinical and Laboratory Standards Institute. 2012. Performance standards for antimicrobial susceptibility testing; 22nd informational supplement M100-S22. CLSI, Wayne, Pa.

E. coli 25722 (wt) = assay: Meropenem MIC with and without inhibitor; assay type: cell-based; settings: Escherichia coli, read-out: Meropenem MIC in the absence of inhibitor
Method: as §3

CN1CCN(NC(=O)CN2C(=O)C(=Cc3c(Cl)ccc(Cl)c3Cl)SC2=S)CC1 (mixture of isomers) [ML302, N-(4-Methylpiperazin-1-yl)-2-(4-oxo-2-thioxo-5-(2,3,6-trichlorobenzylidene)thiazolidin-3-yl)acetamide]
pIC50 (VIM-2): 6.26

O=C(O)C(S)=Cc1c(Cl)ccc(Cl)c1Cl (racemic) [ML302F, 2-Mercapto-3-(2,3,6-trichlorophenyl)acrylic acid]
In vivo toxicity ([1]; G. mellonella, injection): non-toxic | Survival of all larvae ([1]; injection into hemocoel, at 96 hrs): 100%

C[C@@H](O)[C@H]1C(=O)N2C(C(=O)O)=C(S[C@@H]3CN[C@H](C(=O)N(C)C)C3)[C@H](C)[C@H]12 [Meropenem, meropenem]
MIC (K. oxytoca 95): 32 µg/mL | MIC (K. oxytoca 126): 32 µg/mL | MIC (K. pneumoniae 128): 4 µg/mL | MIC (E. coli 98): 16 µg/mL | MIC (E. cloacae 102): 32 µg/mL | MIC (K. pneumoniae 196): 16 µg/mL | MIC (K. pneumoniae 101): 32 µg/mL | MIC (K. pneumoniae 120): 16 µg/mL | % survival of infected larvae (E. coli EC98): 44% | % survival of infected larvae (K. pneumoniae KP120): 69% | % survival of infected larvae (P. aeruginosa GR57): 23% | MIC [2]: ≤ 0.25 µg/mL | MIC (E. coli 25722 (wt)): ≤ 0.25 µg/mL
